Experimental data reported in patent publication US20070166772A1, “Methods for selecting compounds using antibodies with activity as antagonist, antagonist or allosteric modulators” (priority 2003, published 2007).

Legend:
[1] = target: second extracellular loop of the muscarinic M2 receptor (homologue peptide) (Homo sapiens, UniProt P08172); assay: Indirect Inhibition ELISA (IIE): antibody against M2 receptor, homologue peptide and ligand in liquid phase; assay type: binding; conditions: FIG. 5
Procedure: The selected molecule should beside binding the parent peptide in solid phase also be able to bind it in liquid phase. The latter would mime the in vivo conformation of the parent peptide. • Coating • Corresponding peptide is dissolved extemporaneously in appropriate buffer. Peptide at calibrated concentration is coated on a highly absorbing microtitre plate. • Blocking of on-specific binding • Wash • The plate is washed with washing buffer (appendix 1). • Selected molecules to be tested on IIE • Each molecule dissolved at known concentration is distributed on the plate. Immediately different cascade concentration of the parent peptide is added to the well. This is thereafter followed by the first antibody at AD50 dilution and incubated for an appropriate time and at an optimal temperature. • Wash • The plate is washed with washing buffer (appendix 1). • Secondary antibodies • Peroxidase conjugated goat anti-rabbit antibodies diluted at appropriate dilution (appendix 2) is allowed to react with the bound polyclonal anti-GPCR antibodies for an appropriate time and at an optimal temperature. • Wash
The same protocol as mentioned above in “Example 1 ” was performed: […]

[2] = test system: second extracellular loop of the 5-HT4 receptor (peptide C15Q); assay: Inhibition ELISA (IE): anti-peptide antibody against 5-HT4 receptor on the coated synthetic peptide C15Q; assay type: binding; conditions: FIG. 3
Procedure: • Coating • Corresponding peptide is dissolved extemporaneously in appropriate buffer. Peptide at calibrated concentration is coated on a highly absorbing microtitre plate. • Blocking of non-specific binding • Wash • The plate is washed with washing buffer (appendix 1). • Molecules to be screened on the peptide • Each molecule is dissolved and distributed on the plate.
Each molecule which is able to decrease the absorbance at 405 nm at around 20% from its control value is selected for the DMAE.
Five μg/ml of corresponding peptide (C15Q) was coated on a microtitre plate (Falcon, 96 wells). After blocking nonspecific binding sites with blocking buffer, polyclonal anti-C15Q antibodies at decreasing serial dilutions were allowed to react with the peptide.
The same protocol as mentioned above in “Example 1” was performed: […]

Sequence of second extracellular loop of the muscarinic M2 receptor (homologue peptide) (P08172 163-182 limits assumed): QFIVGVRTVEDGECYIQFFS

| SMILES | competition with the homologue peptide for binding the anti-peptide antibodies [1] | inhibition of the interaction of the anti-peptide antibody raised against the 5-HT4 receptor with the corresponding synthetic peptide [2] |
| --- | --- | --- |
| CC[N+](CC)(CC)CCOc1cccc(OCC[N+](CC)(CC)CC)c1OCC[N+](CC)(CC)CC [gallamine] | able to compete with the homologue peptide and hinder the recognition between the homologue peptide and the anti-peptide in liquid phase | – |
| NCCc1c[nH]c2ccc(O)cc12 [5-HT, serotonin] | – | specifically inhibited |
